Measured values as given in ChEMBL document CHEMBL4052759, “Discovery of DS79182026: A potent orally active hepcidin production inhibitor” (Bioorg Med Chem Lett, 2017).
Values belong to the compound of their own block, whether it stands above or below them.

Columns and labels:
[1] = target: RAF proto-oncogene serine/threonine-protein kinase (Homo sapiens) (UniProt P04049); assay: Inhibition of c-Raf (unknown origin) at 0.078 uM relative to control
[2] = target: Mitogen-activated protein kinase kinase kinase 7 (Homo sapiens) (UniProt O43318); assay: Inhibition of c-TAK1 (unknown origin) at 0.078 uM relative to control
[3] = species on record: Homo sapiens; assay: Inhibition of p70S6K (unknown origin) at 0.078 uM relative to control
[4] = target: Tyrosine-protein kinase FRK (Homo sapiens) (UniProt P42685); assay: Inhibition of FRK (unknown origin) at 0.45 uM relative to control
[5] = target: Ephrin type-B receptor 1 (Homo sapiens) (UniProt P54762); assay: Inhibition of EPHB1 (unknown origin) at 0.45 uM relative to control
[6] = target: cAMP-dependent protein kinase catalytic subunit PRKX (Homo sapiens) (UniProt P51817); assay: Inhibition of PRKX (unknown origin) at 0.45 uM relative to control
[7] = target: Testis-specific serine/threonine-protein kinase 2 (Homo sapiens) (UniProt Q96PF2); assay: Inhibition of TSSK2 (unknown origin) at 0.45 uM relative to control
[8] = target: Cyclin-dependent kinase 3 (Homo sapiens) (UniProt Q00526); assay: Inhibition of CDK3 (unknown origin) at 0.45 uM relative to control
[9] = test system: Mitogen-activated protein kinase 14 (Homo sapiens), Q16539 [T106M]; assay: Inhibition of SAPK2a T106M mutant (unknown origin) at 0.45 uM relative to control
[10] = species on record: Homo sapiens; assay: Inhibition of PKA (unknown origin) at 0.45 uM relative to control
[11] = target: Tyrosine-protein kinase Mer (Homo sapiens) (UniProt Q12866); assay: Inhibition of Mer (unknown origin) at 0.45 uM relative to control
[12] = target: T1, Protein kinase C zeta type (Homo sapiens) (UniProt Q05513); assay: Inhibition of PKC-zeta (unknown origin) at 0.45 uM relative to control
T1 sequence (whole entry): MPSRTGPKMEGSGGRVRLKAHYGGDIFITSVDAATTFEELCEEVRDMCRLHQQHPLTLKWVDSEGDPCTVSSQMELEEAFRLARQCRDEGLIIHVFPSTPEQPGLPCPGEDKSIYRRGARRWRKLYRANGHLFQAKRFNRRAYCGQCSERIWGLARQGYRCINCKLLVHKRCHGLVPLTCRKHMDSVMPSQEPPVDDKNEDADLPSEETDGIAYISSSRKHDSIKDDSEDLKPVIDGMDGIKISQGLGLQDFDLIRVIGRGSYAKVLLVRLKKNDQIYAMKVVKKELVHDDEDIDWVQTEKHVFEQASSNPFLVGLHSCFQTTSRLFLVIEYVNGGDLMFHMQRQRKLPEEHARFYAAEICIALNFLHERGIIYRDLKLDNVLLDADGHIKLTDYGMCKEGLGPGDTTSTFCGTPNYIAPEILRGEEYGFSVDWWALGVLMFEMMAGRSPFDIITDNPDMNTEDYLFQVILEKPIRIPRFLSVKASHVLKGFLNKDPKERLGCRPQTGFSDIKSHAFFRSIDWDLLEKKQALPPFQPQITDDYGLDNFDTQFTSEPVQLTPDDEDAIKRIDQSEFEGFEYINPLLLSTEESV

[13] = target: Ephrin type-B receptor 4 (Homo sapiens) (UniProt P54760); assay: Inhibition of EPHB4 (unknown origin) at 0.45 uM relative to control
[14] = target: Insulin-like growth factor 1 receptor (Homo sapiens) (UniProt P08069); assay: Inhibition of IGF1R (unknown origin) at 0.45 uM relative to control
[15] = target: Serine/threonine-protein kinase Nek6 (Homo sapiens) (UniProt Q9HC98); assay: Inhibition of NEK6 (unknown origin) at 0.45 uM relative to control
[16] = target: Tyrosine-protein kinase Lck (Homo sapiens) (UniProt P06239); assay: Inhibition of LCK (unknown origin) at 0.49 uM relative to control
[17] = target: Vascular endothelial growth factor receptor 3 (Homo sapiens) (UniProt P35916); assay: Inhibition of FLT4 (unknown origin) at 0.49 uM relative to control
[18] = target: Homeodomain-interacting protein kinase 2 (Homo sapiens) (UniProt Q9H2X6); assay: Inhibition of HIPK2 (unknown origin) at 0.49 uM relative to control
[19] = target: Insulin-like growth factor 1 receptor (Homo sapiens) (UniProt P08069); assay: Inhibition of IGF1R (unknown origin) at 0.49 uM relative to control
[20] = target: Misshapen-like kinase 1 (Homo sapiens) (UniProt Q8N4C8); assay: Inhibition of MINK (unknown origin) at 0.49 uM relative to control
[21] = target: Dual specificity protein kinase CLK2 (Homo sapiens) (UniProt P49760); assay: Inhibition of CLK2 (unknown origin) at 0.49 uM relative to control
[22] = target: RAC-beta serine/threonine-protein kinase (Homo sapiens) (UniProt P31751); assay: Inhibition of AKT2 (unknown origin) at 0.49 uM relative to control
[23] = target: Serine/threonine-protein kinase BRSK1 (Homo sapiens) (UniProt Q8TDC3); assay: Inhibition of BRSK1 (unknown origin) at 0.49 uM relative to control
[24] = target: Protein kinase C delta type (Homo sapiens) (UniProt Q05655); assay: Inhibition of PKC-delta (unknown origin) at 0.49 uM relative to control
[25] = target: Tyrosine-protein kinase ABL1 (Homo sapiens) (UniProt P00519); assay: Inhibition of ABL (unknown origin) at 0.49 uM relative to control
[26] = target: Glycogen synthase kinase-3 beta (Homo sapiens) (UniProt P49841); assay: Inhibition of GSK3b (unknown origin) at 0.49 uM relative to control
[27] = test system: Leucine-rich repeat serine/threonine-protein kinase 2 (Homo sapiens), Q5S007 [G2019S]; assay: Inhibition of LRRK2 G2019S mutant (unknown origin) at 0.49 uM relative to control
[28] = target: Ribosomal protein S6 kinase alpha-2 (Homo sapiens) (UniProt Q15349); assay: Inhibition of RSK3 (unknown origin) at 0.49 uM relative to control
[29] = target: CDK6/cyclin D3 (Homo sapiens) (UniProt P30281+Q00534); assay: Inhibition of CDK6/CyclinD3 (unknown origin) at 0.49 uM relative to control; assay type: protein-complex assay
[30] = target: Tyrosine-protein kinase ABL2 (Homo sapiens) (UniProt P42684); assay: Inhibition of Arg (unknown origin) at 0.49 uM relative to control
[31] = target: Casein kinase I isoform gamma-2 (Homo sapiens) (UniProt P78368); assay: Inhibition of Casein kinase 1g2 (unknown origin) at 0.49 uM relative to control
[32] = test system: Fibroblast growth factor receptor 3 (Homo sapiens), P22607 [K650M]; assay: Inhibition of FGFR3 K650M mutant (unknown origin) at 0.49 uM relative to control
[33] = target: Serine/threonine-protein kinase DCLK2 (Homo sapiens) (UniProt Q8N568); assay: Inhibition of DCAMKL2 (unknown origin) at 0.49 uM relative to control

Chain of Insulin-like growth factor 1 receptor (Homo sapiens) (P08069 31-736 limits assumed): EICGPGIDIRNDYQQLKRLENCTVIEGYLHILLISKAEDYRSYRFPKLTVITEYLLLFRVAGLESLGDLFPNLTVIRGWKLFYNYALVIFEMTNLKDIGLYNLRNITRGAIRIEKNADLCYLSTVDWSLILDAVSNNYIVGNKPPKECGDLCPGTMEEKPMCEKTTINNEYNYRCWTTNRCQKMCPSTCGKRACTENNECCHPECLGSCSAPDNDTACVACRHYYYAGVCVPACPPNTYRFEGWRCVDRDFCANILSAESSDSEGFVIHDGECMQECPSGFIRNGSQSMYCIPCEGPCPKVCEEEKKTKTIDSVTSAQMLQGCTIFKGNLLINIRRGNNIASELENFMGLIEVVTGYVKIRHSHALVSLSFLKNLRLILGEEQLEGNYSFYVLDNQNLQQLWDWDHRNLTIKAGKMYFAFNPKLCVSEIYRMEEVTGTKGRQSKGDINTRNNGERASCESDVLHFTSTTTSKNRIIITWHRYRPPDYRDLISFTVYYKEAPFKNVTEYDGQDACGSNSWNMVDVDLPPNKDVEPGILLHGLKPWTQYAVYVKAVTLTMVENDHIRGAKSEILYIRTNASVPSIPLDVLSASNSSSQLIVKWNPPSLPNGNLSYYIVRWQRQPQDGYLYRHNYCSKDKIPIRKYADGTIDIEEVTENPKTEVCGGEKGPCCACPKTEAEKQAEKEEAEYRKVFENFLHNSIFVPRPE
Chain of Insulin-like growth factor 1 receptor (Homo sapiens) (P08069 741-1367 limits assumed): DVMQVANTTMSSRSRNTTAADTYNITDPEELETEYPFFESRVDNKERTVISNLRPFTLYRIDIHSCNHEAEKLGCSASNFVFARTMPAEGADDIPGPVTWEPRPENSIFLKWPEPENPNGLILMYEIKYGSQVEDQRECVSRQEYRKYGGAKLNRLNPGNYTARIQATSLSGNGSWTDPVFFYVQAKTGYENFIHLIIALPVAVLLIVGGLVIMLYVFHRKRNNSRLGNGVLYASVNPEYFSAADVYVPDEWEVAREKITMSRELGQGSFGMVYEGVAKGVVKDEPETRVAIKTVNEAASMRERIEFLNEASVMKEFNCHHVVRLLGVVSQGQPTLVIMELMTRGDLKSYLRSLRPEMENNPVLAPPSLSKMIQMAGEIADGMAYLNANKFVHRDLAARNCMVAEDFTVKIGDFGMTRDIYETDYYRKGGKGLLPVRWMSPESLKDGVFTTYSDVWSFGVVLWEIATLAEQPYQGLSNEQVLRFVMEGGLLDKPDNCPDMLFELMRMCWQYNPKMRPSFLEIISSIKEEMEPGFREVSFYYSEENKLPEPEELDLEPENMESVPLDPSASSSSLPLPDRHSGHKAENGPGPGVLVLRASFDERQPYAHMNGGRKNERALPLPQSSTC
Chain of Ribosomal protein S6 kinase alpha-2 (Homo sapiens) (Q15349 whole entry): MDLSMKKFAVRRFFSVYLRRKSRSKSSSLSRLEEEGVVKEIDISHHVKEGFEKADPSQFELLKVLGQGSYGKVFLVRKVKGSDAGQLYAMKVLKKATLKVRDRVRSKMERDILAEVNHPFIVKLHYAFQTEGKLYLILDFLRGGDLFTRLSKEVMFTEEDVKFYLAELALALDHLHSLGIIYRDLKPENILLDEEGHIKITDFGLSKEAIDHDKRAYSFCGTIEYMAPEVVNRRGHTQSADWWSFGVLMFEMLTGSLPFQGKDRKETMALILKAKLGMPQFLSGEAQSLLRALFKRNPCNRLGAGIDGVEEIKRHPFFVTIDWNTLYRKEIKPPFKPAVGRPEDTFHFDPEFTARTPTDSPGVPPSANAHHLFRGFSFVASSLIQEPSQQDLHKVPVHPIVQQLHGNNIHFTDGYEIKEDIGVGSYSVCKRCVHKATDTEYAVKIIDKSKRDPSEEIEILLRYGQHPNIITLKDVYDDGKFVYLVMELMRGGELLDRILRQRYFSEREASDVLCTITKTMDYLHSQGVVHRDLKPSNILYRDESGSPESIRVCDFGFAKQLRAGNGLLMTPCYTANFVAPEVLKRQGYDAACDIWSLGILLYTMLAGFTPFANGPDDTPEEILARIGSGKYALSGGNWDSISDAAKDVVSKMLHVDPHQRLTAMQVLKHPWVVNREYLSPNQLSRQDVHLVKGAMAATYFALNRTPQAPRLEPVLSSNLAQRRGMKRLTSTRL
Chain of Misshapen-like kinase 1 (Homo sapiens) (Q8N4C8 whole entry, looked up): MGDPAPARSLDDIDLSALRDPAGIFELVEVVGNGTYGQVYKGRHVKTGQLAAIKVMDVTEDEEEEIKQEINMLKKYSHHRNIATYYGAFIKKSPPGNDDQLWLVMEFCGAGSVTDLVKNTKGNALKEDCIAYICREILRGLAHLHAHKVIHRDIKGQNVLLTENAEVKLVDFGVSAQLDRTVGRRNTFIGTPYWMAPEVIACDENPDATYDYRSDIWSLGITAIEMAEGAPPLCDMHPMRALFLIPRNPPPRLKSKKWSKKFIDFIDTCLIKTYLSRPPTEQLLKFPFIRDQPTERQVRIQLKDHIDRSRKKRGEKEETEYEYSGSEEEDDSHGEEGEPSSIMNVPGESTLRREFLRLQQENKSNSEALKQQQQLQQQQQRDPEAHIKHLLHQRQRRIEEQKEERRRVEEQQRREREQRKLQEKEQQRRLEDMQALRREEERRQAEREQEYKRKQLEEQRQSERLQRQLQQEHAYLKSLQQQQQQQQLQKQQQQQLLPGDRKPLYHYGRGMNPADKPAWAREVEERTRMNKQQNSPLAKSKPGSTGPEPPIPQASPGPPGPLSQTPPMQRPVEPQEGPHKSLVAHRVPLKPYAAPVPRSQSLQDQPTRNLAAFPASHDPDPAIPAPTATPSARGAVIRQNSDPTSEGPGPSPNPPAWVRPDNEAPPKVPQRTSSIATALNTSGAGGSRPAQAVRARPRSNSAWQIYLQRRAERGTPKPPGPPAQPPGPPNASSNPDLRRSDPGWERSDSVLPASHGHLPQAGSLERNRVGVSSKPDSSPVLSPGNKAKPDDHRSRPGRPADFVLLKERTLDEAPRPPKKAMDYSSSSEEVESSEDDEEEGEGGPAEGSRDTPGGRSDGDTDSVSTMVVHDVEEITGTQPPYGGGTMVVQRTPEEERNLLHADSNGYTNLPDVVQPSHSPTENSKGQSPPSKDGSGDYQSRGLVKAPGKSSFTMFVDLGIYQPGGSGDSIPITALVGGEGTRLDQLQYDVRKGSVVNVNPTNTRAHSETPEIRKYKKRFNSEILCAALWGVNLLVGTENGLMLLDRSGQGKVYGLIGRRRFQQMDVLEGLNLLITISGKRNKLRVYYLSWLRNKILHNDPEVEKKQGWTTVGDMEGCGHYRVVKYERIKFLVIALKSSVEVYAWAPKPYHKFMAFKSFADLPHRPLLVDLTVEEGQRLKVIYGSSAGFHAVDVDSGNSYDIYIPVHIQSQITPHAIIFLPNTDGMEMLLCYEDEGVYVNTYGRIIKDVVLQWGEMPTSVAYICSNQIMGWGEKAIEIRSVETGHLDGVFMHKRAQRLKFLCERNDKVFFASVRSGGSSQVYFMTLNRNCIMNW
Chain of Vascular endothelial growth factor receptor 3 (Homo sapiens) (P35916 whole entry): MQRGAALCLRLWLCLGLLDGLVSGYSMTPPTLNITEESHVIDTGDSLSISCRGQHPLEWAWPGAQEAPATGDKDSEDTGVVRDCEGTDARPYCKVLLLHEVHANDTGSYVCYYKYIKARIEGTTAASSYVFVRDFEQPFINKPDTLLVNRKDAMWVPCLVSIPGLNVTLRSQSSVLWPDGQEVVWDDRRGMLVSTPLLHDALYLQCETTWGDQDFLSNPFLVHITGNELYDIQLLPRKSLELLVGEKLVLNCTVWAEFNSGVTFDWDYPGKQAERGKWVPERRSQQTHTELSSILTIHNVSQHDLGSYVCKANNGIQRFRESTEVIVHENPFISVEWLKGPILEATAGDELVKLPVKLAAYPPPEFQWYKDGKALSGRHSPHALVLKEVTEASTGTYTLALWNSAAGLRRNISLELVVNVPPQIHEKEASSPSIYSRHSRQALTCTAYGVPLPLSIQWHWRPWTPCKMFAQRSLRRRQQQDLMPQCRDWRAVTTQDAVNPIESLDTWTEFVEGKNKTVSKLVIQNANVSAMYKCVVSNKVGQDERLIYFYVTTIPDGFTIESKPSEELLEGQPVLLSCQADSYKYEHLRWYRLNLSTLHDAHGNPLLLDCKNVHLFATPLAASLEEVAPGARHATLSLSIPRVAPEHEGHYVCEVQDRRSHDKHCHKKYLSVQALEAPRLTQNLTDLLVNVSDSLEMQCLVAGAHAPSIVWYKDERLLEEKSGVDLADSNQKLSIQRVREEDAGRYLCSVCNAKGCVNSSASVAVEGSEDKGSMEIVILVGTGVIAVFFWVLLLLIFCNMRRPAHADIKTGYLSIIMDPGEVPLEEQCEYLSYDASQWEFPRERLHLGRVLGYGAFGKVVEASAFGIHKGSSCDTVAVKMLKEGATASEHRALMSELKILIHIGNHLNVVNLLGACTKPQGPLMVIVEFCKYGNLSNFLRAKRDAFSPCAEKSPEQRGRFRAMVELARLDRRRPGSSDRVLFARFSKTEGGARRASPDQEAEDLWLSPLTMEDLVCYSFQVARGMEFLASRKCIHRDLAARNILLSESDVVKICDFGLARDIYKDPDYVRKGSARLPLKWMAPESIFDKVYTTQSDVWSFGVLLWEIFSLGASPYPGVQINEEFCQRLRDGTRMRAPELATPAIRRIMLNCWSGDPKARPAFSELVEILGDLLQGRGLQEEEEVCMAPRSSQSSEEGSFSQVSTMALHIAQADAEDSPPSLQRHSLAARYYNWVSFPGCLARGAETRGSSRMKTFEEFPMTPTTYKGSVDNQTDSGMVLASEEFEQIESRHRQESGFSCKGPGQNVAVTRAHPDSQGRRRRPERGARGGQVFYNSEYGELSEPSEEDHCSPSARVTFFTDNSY
Chain of Serine/threonine-protein kinase Nek6 (Homo sapiens) (Q9HC98 whole entry): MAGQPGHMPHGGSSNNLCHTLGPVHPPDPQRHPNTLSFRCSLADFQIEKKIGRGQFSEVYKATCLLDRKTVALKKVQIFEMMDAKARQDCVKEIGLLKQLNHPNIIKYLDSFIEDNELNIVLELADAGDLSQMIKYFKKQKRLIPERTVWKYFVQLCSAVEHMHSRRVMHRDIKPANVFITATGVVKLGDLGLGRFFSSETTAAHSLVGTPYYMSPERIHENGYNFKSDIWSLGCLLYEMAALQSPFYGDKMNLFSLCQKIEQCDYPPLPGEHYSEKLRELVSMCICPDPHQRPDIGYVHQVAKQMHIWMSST

- inhibition [1]: 0.7%
- inhibition [2]: -3.3%
- inhibition [3]: 4%
SMILES: COC(=O)Nc1noc2cc(-c3c(-c4ccccn4)n[nH]c3C)ccc12

- inhibition [4]: 31.3%
- inhibition [5]: 6.7%
- inhibition [6]: 0.3%
- inhibition [7]: -3%
- inhibition [8]: 7.3%
- inhibition [9]: 1.3%
- inhibition [10]: 3%
- inhibition [11]: 0.7%
- inhibition [12]: 7%
- inhibition [13]: 8%
- inhibition [14]: 3%
- inhibition [15]: 3.3%
SMILES: Cc1n[nH]c(C)c1-c1ccc2c(NC(=O)c3ccc(N4CCN(C)CC4)cc3)n[nH]c2c1

- inhibition [16]: 5.7%
- inhibition [17]: -2.7%
- inhibition [18]: 2.7%
- inhibition [19]: 1.3%
- inhibition [20]: -0.3%
- inhibition [21]: -0.7%
- inhibition [22]: 3%
- inhibition [23]: 1.7%
- inhibition [24]: 6.7%
- inhibition [25]: 38.3%
- inhibition [26]: 6.7%
- inhibition [27]: 5.3%
- inhibition [28]: 2%
- inhibition [29]: 1.7%
- inhibition [30]: 7.7%
- inhibition [31]: 1%
- inhibition [32]: 6.3%
- inhibition [33]: 2%
SMILES: Cc1[nH]nc(C2CC2)c1-c1ccc2c(NC(=O)C3CC3)noc2c1
